How the values were obtained:
[1] = test system: Tg2576 APP mouse model; assay: Radial arm maze after immunization of Tg2576 mice; format: in vivo
Experimental: (§1) Briefly, mice received their first immunization with K6Aβ1-30-NH2(E18E19) at 10.5-13 months of age (peptide: n=23; vehicle: n=24). The animals were bled prior to vaccination, 3 months following the first injection and at the time of sacrifice at 18 to 21 months. The mice were tested in the radial arm maze, subsequently perfused and their brains processed as described (Sigurdsson et al., Am. J. Pathol. 2001; 159:439-4471) (peptide: n=18; vehicle: n=18).
The vaccination was performed in the Tg2576 APP mouse model developed by Karen Hsiao and colleagues (Hsiao et al., Science 1996:274:99-1022). These mice develop Aβ plaques as early as at 11 to 13 months of age. The animals were maintained on a 12-hour light-dark cycle, and had access to food and water ad libitum. The animal care was in accordance with institutional guidelines.
K6Aβ1-30-NH2(E18E19) was supplied as trifluoroacetic acid salt. […]
Animals were kept in test room throughout the experiment, behind a cover to prevent view of the apparatus and room. […] Total number of errors and time to enter all eight arms were recorded. […]
(§2) The data for the amyloid burden within the brain were analyzed by a Student's t-test, one-tailed (GraphPad Prism). The radial arm maze data was analyzed by two-way ANOVA repeated measures. […] Correlation was determined by calculating the Pearson r correlation coefficient.

[2] = test system: Tg2576 APP mouse model; assay: Antibody levels in plasma by ELISA after immunization; format: in vivo; details: for IgM response compared to IgG response: plasma at 1:500 dilution
Experimental: as §1
K6Aβ1-30-NH2(E18E19) was supplied as trifluoroacetic acid salt. The immunization procedure was performed as previously described by us (Sigurdsson et al., Am. J. Pathol. 2001; 159:439-4471) which is the same protocol as described by Schenk and colleagues (Schenk et al., Nature 1999; 400:173-1773) except that the peptide was not incubated overnight at 37° C. before injection. Briefly, the peptide was dissolved in phosphate-buffered saline (PBS) at a concentration of 2 mg/ml and then mixed 1:1 (v/v) with the adjuvant or PBS. Complete Freund's adjuvant was used for the first injection, incomplete Freund's adjuvant for the next three injections, and PBS from the fifth injection forward. The mice received a subcutaneous injection of 100 μl of the mixture (ie, 100 μg/100 μl) followed by a second injection 2 weeks later, and then monthly thereafter. Vaccination using the K6Aβ1-30-NH2(E18E19) peptide started when the mice were 10.5-13 months of age and the mice were sacrificed at 18-21 months of age.
Antibody levels were determined by 1:500 dilutions of plasma using an enzyme-linked immunosorbent assay (ELISA) as described previously (Jimenez-Huete et al., Alzheimers Reports 1998; 1:41-47) in which Aβ or its derivative is coated onto microtiter wells. The antibodies were detected by a goat anti-mouse IgG linked to a horseradish peroxidase (Amersham Pharmacia Biotech, Piscataway, N.J.) or a goat anti-mouse IgM peroxidase conjugate (Sigma, A8786), and tetramethyl benzidine (Pierce, Rockford, Ill.) was the substrate.

[3] = test system: Aβ plaques; assay: Histology and image analysis of Aβ plaques in brain (6E10 staining); format: in vivo, mouse
Experimental: as §1
Mice were anesthetized with sodium pentobarbital (150 mg/kg, intraperitoneally), perfused transaortically with phosphate buffer and the brains processed as previously described (Sigurdsson et al., Neurobiol. Aging 1996; 17:893-901) The right hemisphere was immersion fixed in periodate-lysine-paraformaldehyde (PLP), whereas the left hemisphere was snap-frozen for measurements of Aβ3 levels using established ELISA methods (Mehta et al., Arch. Neurol. 2000; 57:100-105). Serial coronal sections (40 μm) were cut and every fifth section was stained with 6E10 which recognizes Aβ and stains both pre-amyloid and Aβ plaques (Kim et al., Neurosci Res Comm 1990; 7:113-122). […]
Immunohistochemistry of tissue sections was quantified with a Bioquant image analysis system, and unbiased sampling was used (West et al., Trends Neurosci. 1999; 22:51-61). […] Cortical area analyzed was dorsomedially from the cingulate cortex and extended ventrolaterally to the rhinal fissure within the right hemisphere. The area of the grid was 800×800 μm^2 and amyloid load was measured in 20 frames per mouse (each: 640×480 μm^2), chosen randomly. […] The number of plaques were also counted and the plaques were divided into three groups based on their size (small: 0.01-50 μm^2; medium: 50.01-1000 μm^2; large: >1000 μm^2).
as §2

[4] = test system: immobilized Aβ40 and Aβ42 peptides; assay: Solid-phase binding assay (ELISA) of apoE preparations to immobilized Aβ peptides; details: delipidated or lipidated (HDL/r-HDL) apoE3 and apoE4, 0-150 nM, 3 h
immobilized Aβ40 and Aβ42 peptides, sequence (P05067 672-711 limits assumed): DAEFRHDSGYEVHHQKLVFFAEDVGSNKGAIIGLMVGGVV
Experimental: The binding of apoE to Aβ species was studied by ELISA using immobilized freshly prepared (non-aggregated) or 72-h-aggregated Aβ40 and Aβ42 and apoE3 or apoE4 isoforms with different degrees of lipidation. Polystyrene microtitre plates (Immulon2; Dynex Technology, Chantilly, Va., U.S.A.) were coated for 2 h. at 37° C. with either fresh or aggregated Aβ40 and Aβ42 (40(0 ng in 100 μl of 0.1 M NaHCO3, pH 9.6, per well). Under these conditions, 10 ng of fresh Aβ40, 9.6 ng of fresh Aβ42, 10.2 ng of aggregated Aβ40 and 10.9 ng of aggregated Aβ42 (representing 2.5, 2.4, 2.6 and 2.7% of the peptide offered, respectively) were coated to the microtitre wells, as determined by a modification of the Quantigold assay (Diversified Biotech, Boston, Mass., U.S.A.) for protein quantification. After blocking with Superblock (Pierce), increasing concentrations of apoE (0-150 nM in TBS; 100 μl per well) were added to the Aβ-coated wells and incubated for 3 h. at 37° C. Bound apoE was detected with monoclonal anti-apoE antibody (3D12, 1:1000) followed by alkaline-phosphatase-conjugated goat F(ab′)2 anti-mouse IgG (1:3000; BioSource International, Camarillo, Calif., U.S.A.). The reaction was developed for 30 min. with p-nitrophenyl phosphate in diethanolamine buffer (Bio-Rad, Hercules, Calif., U.S.A.), and quantified at 405 nm on a Microplate Reader (Cambridge Technology, Watertown, Mass., U.S.A.). […]

Row | Substance | errors in the radial arm maze compared to vehicle-treated controls ([1]; Tg2576 transgenic mice, two-way ANOVA repeated measures, p<0.05) | radial arm maze performance compared to day 1 ([1]; immunized mice, p<0.01-0.05) | cross-reactivity of generated IgM antibodies ([2]; IgM antibodies after immunization) | IgM response compared to IgG response [2] | IgM response compared to IgG response ([2]; listed as K6Aβ1-30-NH2(E18E19)) | effect on large plaques ([3]; large: >1000 μm^2) | reduction of medium sized plaques ([3]; medium: 50.01-1000 μm^2, p=0.04) [%] | reduction of small plaques ([3]; small: 0.01-50 μm^2, p=0.02) [%] | binding of apoE to Aβ [4]
1 | K6Aβ1-30(E18E19): first 30 amino acids of amyloid-β with glutamate substituted for valine and phenylalanine in positions 18 and 19 | significantly fewer errors | showed improvements on days 3, 5, and 7-9 | cross-reacted with Aβ1-40 | substantially more pronounced IgM response compared to IgG response | high IgM response and low IgG response | not significantly (N.S.) affected | 29 | 34 | –
2 | apoE: human apoE3 or apoE4 from Sf9, HEK-293 or RAW-264 cells, delipidated or in HDL/r-HDL particles | – | – | – | – | – | – | – | – | high affinity
